Experimental data as given in patent publication US9273077B2, “Phosphorus derivatives as kinase inhibitors” (ARIAD Pharmaceuticals, Inc., priority 2008, dated 2016).

These molecules were tested against T1, ALK (Homo sapiens, UniProt Q9UM73) (assay: inhibitory potency against ALK (kinase inhibition assay)).
T1 construct: Kinases are expressed as either kinase domains or full length constructs fused to glutathione S-transferase (GST) or polyHistidine tagged fusion proteins; made in house; host or cells: E. coli or Baculovirus-High Five (not specified which for ALK)
Format: biochemical
Excerpt: More specifically, the compounds described herein are screened for kinase inhibition activity as follows. Kinases suitable for use in the following protocol include, but are not limited to: ALK, Jak2, b-Raf, c-Met, Tie-2, FLT3, Abl, Lck, Lyn, Src, Fyn, Syk, Zap-70, Itk, Tec, Btk, EGFR, ErbB2, Kdr, FLT1, Tek, InsR, and AKT.
Kinases are expressed as either kinase domains or full length constructs fused to glutathione S-transferase (GST) or polyHistidine tagged fusion proteins in either E. coli or Baculovirus-High Five expression systems. They are purified to near homogeneity by affinity chromatography as previously described (Lehr et al., 1996; Gish et al., 1995). In some instances, kinases are co-expressed or mixed with purified or partially purified regulatory polypeptides prior to measurement of activity.
Kinase activity and inhibition can be measured by established protocols (see e.g., Braunwalder et al., 1996). In such cases, the transfer of ^33PO4 from ATP to the synthetic substrates poly(Glu, Tyr) 4:1 or poly(Arg, Ser) 3:1 attached to the bioactive surface of microtiter plates is taken as a measure of enzyme activity. After an incubation period, the amount of phosphate transferred is measured by first washing the plate with 0.5% phosphoric acid, adding liquid scintillant, and then counting in a liquid scintillation detector. The IC50 is determined by the concentration of compound that causes a 50% reduction in the amount of ^33P incorporated onto the substrate bound to the plate.
For example, in one method, compounds can be tested for their ability to inhibit kinase activity of baculovirus-expressed ALK using a modification of the ELISA protocol reported for trkA in Angeles, T. S. et al., Anal. Biochem. 1996, 236, 49-55, which is incorporated herein by reference. Phosphorylation of the substrate, phopholipase C-gamma (PLC- ? ) generated as a fusion protein with glutathione-S-transferase (GST) as reported in rotin, D. et al., EMBO J. 1992, 11, 559-567, which is incorporated by reference, can be detected with europium-labeled anti-phosphotyrosine antibody and measured by time-resolved fluorescence (TRF). […] Detection of the phosphorylated product can be performed by adding 100 ? L/well of Eu-N1 labeled PT66 antibody (Perkim Elmer #AD0041). Incubation at 37 degrees C. then proceeds for one hour, followed by addition of 100 ? L enhancement solution (for example Wallac #1244-105). The plate is gently agitated and after thirty minutes, the fluorescence of the resulting solution can be measured (for example using EnVision 2100 (or 2102) multilabel plate reader from Perkin Elmer).
Data analysis can then be performed. IC50 values can be calculated by plotting percent inhibition versus log10 of concentration of compound.
The inhibition of ALK tyrosine kinase activity can also be measured using the recombinant kinase domain of the ALK in analogy to VEDG-R kinase assay described in J. Wood et al., Cancer Res 2000, 60, 2178-2189. In vitro enzyme assays using GST-ALK protein tyrosine kinase can be performed in 96-well plate as a filter binding assay in 20 mMTris.HCl, pH 7.5, 3 mM MgCl2, 10 mM MnCl2, […], 0.1 ? Ci/assay (=30 ? L) [ ? -^33P]-ATP, 2 ? M ATP, 3 ? g/mL poly (Glu, tyr 4:1) Poly-EY (sigma P-0275), 1% DMSO, 25 ng ALK enzyme. Assays can be incubated for 10 min, at ambient temperature. Reactions can be terminated by adding 50 ? L of 125 mM EDTA, and the reaction mixture can be transferred onto a MAIP Multiscreen plate (Millipore, Bedford, Mass.) previously wet with methanol, and rehydrated for 5 minutes with water. Following washing (0.5% H3PO4), plates can be counted in a liquid scintillation counter. IC50 values are calculated by linear regression analysis of the percentage inhibition.

T1 sequence (Q9UM73 19-1620): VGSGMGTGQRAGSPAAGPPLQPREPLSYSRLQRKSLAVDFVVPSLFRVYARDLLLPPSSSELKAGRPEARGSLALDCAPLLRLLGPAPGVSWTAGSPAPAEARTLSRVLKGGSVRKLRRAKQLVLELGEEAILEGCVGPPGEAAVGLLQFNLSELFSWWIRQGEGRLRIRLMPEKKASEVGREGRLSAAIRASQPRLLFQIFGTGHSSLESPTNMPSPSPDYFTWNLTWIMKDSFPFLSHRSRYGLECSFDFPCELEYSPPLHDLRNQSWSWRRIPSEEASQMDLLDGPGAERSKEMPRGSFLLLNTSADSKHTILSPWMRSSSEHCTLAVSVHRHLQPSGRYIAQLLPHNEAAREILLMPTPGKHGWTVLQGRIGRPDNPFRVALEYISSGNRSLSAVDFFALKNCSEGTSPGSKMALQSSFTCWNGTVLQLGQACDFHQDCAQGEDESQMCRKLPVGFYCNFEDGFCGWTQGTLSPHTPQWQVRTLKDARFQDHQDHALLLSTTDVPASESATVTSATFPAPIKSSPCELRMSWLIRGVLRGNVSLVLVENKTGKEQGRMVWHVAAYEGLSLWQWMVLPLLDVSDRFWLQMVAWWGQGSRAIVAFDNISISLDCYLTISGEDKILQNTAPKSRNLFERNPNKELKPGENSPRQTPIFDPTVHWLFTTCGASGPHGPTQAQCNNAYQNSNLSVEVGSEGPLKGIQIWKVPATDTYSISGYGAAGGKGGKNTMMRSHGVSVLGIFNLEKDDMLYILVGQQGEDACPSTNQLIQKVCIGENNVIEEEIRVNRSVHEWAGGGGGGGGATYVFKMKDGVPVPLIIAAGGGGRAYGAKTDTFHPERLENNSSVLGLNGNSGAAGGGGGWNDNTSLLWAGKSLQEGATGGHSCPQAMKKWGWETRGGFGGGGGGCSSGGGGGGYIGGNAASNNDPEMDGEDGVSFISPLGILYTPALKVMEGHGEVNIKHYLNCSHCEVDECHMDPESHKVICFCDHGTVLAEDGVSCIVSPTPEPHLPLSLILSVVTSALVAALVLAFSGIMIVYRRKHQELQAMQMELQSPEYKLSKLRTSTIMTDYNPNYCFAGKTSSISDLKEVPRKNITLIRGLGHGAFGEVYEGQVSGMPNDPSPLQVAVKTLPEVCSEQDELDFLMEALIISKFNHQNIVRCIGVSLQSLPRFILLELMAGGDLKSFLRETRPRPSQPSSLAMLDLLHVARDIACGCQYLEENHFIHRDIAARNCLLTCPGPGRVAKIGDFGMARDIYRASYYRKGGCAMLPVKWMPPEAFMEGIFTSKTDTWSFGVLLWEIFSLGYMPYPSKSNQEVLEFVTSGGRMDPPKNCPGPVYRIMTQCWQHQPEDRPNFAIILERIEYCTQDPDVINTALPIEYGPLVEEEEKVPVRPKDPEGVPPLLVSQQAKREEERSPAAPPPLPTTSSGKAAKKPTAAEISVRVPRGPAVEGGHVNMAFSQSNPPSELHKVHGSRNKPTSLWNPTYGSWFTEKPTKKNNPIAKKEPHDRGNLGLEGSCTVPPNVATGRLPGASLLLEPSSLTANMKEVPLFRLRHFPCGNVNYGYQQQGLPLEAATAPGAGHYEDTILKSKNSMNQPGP

With `COc1cc(P2(=O)CCNCC2)ccc1Nc1nccc(Nc2ccccc2S(=O)(=O)C(C)C)n1` [Example 30, N^2-[2-methoxy-4-(4-oxido-1,4-azaphosphinan-4-yl)phenyl]-N^4-[2-(propan-2-ylsulfonyl)phenyl]pyrimidine-2,4-diamine] as the molecule, how does the IC50 read?
The IC50 was 2 to 10 nM.

`COc1cc(P(C)(C)=O)ccc1Nc1nc(Nc2ccccc2S(=O)(=O)C(C)C)c2cc[nH]c2n1` [Example 31, N^2-[4-(dimethylphosphoryl)-2-methoxyphenyl]-N^4-[2-(propan-2-ylsulfonyl)phenyl]-7H-pyrrolo[2,3-d]pyrimidine-2,4-diamine] was tested. Which IC50 did it give?
Its IC50 is < 2 nM.

`COc1nc(P(C)(C)=O)ccc1Nc1ncc(Cl)c(Nc2ccccc2S(=O)(=O)C(C)C)n1` [Example 32, 5-chloro-N^2-[6-(dimethylphosphoryl)-2-methoxypyridin-3-yl]-N^4-[2-(propan-2-ylsulfonyl)phenyl]pyrimidine-2,4-diamine] was tested. Which IC50 did it give?
Its IC50 is < 2 nM.

`COc1nc(P(C)(C)=O)cnc1Nc1ncc(Cl)c(Nc2ccccc2S(=O)(=O)C(C)C)n1` [Example 33, 5-chloro-N^2-[5-(dimethylphosphoryl)-3-methoxypyrazin-2-yl]-N^4-[2-(propan-2-ylsulfonyl)phenyl]pyrimidine-2,4-diamine] was tested. Which IC50 did it give?
The IC50 was > 10 nM.
